For one test, the target named is T1, FGFR3 (Homo sapiens, UniProt P22607).
T1 construct: purchased Ambit Biosciences
As to the kind of experiment: KinomeScan kinase profiling. The format is binding. Conditions: 10 μM.

Another test deals with T2, JNK2 (Homo sapiens, UniProt P45984).
T2 construct: purchased Ambit Biosciences
In words: KinomeScan kinase profiling. The format is binding. Conditions: 10 μM.

The next test deals with T3, JAK2(Kin.Dom2) (Homo sapiens, UniProt O60674).
T3 construct: JAK2(Kin.Dom2); purchased Ambit Biosciences
T3 sequence (O60674 849-1124 limits assumed): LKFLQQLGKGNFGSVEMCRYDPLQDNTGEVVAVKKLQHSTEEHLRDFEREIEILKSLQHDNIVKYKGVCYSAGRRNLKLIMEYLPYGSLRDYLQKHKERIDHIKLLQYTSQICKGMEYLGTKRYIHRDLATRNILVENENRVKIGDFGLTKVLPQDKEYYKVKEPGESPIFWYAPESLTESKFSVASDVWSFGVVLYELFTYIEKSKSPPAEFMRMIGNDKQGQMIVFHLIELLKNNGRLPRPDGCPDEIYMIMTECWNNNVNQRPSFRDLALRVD
In words: KinomeScan kinase profiling. The format is binding. The settings on record: 10 μM.

In test [1] the test system is IL-6 production in human umbilical vein endothelial cells (HUVECs). In words: Cytokine-induced IL-6 production assay in HUVEC. Type of test: cell-based. Conditions: IL-1β or LPS stimulation for 6 hours, ELISA, FIG. 4. As for the experimental part: Clonetics® primary human umbilical vein endothelial cells (HUVEC; Lonza Walkersville, Inc., Walkersville, Md.) were cultured according to the manufacturer's instructions in EGM™-2 medium (Lonza) supplemented with EGM-2 SingleQuots (containing fetal bovine serum, hydrocortisone, hFGF, VEGF, hFGF-B, R3-IGF-1, ascorbic acid, hEGF, heparin and gentamicin; Lonza). Where indicated, cells were stimulated with 1 ng/mL IL-1β (R&D Systems, Inc., Minneapolis, Minn.) or 50 ng/mL LPS (Sigma-Aldrich, St. Louis, Mo.) for 6 or 24 hours before cell or supernatant harvest.
Activity of IC261 and Compound A against cytokine-induced inflammation in vitro was determined in human umbilical vein endothelial cells (HUVECs) upon stimulation with either IL-1β or LPS for 6 hours. IL-6 was assessed in supernatants by ELISA according to the manufacturer's instructions (BD Biosciences), and % inhibition calculated based on maximal IL-6 production in each assay.
For orientation: In an ELISA, binding on a coated surface is turned into a signal by an enzyme label.

The next test addresses T4, EPHB4 (Homo sapiens, UniProt P54760).
T4 construct: purchased Ambit Biosciences (San Diego, Calif.)
In words: KinomeScan kinase profiling. Type of test: binding. Conditions: 10 μM.

The next test deals with T5, EPHA3 (Homo sapiens, UniProt P29320).
T5 construct: purchased Ambit Biosciences (San Diego, Calif.)
As to the kind of experiment: KinomeScan kinase profiling. Type of test: binding. Conditions: 10 μM.

Another test addresses T6, STK3 (Homo sapiens, UniProt Q13188).
T6 construct: purchased Ambit Biosciences
As to the kind of experiment: KinomeScan kinase profiling. The format is binding. The settings on record: 10 μM.

Another test addresses T7, FYN (Homo sapiens, UniProt P06241).
T7 construct: purchased Ambit Biosciences
As to the kind of experiment: KinomeScan kinase profiling. Type of test: binding. Conditions: 10 μM.

The next test has as its target PAK4 (Homo sapiens, UniProt O96013). In words: KinomeScan kinase profiling. The format is binding. Conditions: 10 μM.
A further test addresses T8, PKAC-alpha (Homo sapiens, UniProt P17612).
T8 construct: purchased Ambit Biosciences
In words: KinomeScan kinase profiling. The format is binding. The settings on record: 10 μM.

In a further test the target is T9, AURKA (Homo sapiens, UniProt O14965).
T9 construct: purchased Ambit Biosciences
T9 sequence (O14965 whole entry): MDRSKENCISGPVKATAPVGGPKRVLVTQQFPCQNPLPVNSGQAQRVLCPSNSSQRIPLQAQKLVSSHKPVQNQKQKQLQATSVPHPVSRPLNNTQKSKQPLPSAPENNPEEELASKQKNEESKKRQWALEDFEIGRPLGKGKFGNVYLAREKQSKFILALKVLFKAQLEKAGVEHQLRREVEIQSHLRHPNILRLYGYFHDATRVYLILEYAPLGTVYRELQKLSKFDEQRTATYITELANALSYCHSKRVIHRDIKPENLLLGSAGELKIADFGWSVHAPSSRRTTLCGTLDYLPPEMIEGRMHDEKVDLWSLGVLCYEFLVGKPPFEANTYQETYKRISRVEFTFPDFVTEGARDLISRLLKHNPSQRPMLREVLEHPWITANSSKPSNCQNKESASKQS
In words: KinomeScan kinase profiling. The format is binding. Conditions: 10 μM.

Another test addresses T10, FGR (Homo sapiens, UniProt P09769).
T10 construct: purchased Ambit Biosciences
As to the kind of experiment: KinomeScan kinase profiling. The format is binding. The settings on record: 10 μM.

Another test has as its target T11, AMPK-alpha1 (Homo sapiens, UniProt Q13131).
T11 construct: purchased Ambit Biosciences
As to the kind of experiment: KinomeScan kinase profiling. The format is binding. Conditions: 10 μM.

Another test concerns the target T12, KIT (Homo sapiens, UniProt P10721).
T12 construct: purchased Ambit Biosciences
As to the kind of experiment: KinomeScan kinase profiling. Type of test: binding. The settings on record: 10 μM.

The next test addresses T13, CK1α (Homo sapiens, UniProt P48729).
T13 construct: purchased Invitrogen
In words: In vitro kinase assay (33P, peptide substrate). The format is biochemical.

Another test concerns the target T14, STK4 (Homo sapiens, UniProt Q13043).
T14 construct: purchased Ambit Biosciences
In words: KinomeScan kinase profiling. Type of test: binding. Conditions: 10 μM.

Molecules are shown by their SMILES. Read-outs that look alike come from different tables or passages of the source.

T10 sequence (P09769 whole entry): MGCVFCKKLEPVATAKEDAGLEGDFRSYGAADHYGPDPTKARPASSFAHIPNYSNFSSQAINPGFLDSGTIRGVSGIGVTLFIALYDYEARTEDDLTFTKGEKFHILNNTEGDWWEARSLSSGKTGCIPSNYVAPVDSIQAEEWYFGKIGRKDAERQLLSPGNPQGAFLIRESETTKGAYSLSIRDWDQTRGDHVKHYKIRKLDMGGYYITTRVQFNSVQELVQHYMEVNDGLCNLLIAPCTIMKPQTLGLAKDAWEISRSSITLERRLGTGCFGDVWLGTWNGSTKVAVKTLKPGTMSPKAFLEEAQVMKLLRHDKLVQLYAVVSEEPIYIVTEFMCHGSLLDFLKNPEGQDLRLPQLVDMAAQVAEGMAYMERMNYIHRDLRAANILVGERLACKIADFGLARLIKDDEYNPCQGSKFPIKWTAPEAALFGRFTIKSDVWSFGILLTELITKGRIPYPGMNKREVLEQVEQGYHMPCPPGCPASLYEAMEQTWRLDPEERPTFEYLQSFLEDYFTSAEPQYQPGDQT
T2 sequence (P45984 whole entry): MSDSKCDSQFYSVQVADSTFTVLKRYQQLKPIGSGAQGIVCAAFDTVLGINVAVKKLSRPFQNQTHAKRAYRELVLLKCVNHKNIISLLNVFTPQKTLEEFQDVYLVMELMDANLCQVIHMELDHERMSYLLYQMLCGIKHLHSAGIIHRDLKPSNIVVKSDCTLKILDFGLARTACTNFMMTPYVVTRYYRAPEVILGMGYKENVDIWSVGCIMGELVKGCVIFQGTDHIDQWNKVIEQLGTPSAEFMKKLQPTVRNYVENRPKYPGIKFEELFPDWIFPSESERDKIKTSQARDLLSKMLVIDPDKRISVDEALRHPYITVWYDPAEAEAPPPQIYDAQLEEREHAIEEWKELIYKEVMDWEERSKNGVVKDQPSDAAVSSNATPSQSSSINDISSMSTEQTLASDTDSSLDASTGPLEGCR
T12 sequence (P10721 26-976): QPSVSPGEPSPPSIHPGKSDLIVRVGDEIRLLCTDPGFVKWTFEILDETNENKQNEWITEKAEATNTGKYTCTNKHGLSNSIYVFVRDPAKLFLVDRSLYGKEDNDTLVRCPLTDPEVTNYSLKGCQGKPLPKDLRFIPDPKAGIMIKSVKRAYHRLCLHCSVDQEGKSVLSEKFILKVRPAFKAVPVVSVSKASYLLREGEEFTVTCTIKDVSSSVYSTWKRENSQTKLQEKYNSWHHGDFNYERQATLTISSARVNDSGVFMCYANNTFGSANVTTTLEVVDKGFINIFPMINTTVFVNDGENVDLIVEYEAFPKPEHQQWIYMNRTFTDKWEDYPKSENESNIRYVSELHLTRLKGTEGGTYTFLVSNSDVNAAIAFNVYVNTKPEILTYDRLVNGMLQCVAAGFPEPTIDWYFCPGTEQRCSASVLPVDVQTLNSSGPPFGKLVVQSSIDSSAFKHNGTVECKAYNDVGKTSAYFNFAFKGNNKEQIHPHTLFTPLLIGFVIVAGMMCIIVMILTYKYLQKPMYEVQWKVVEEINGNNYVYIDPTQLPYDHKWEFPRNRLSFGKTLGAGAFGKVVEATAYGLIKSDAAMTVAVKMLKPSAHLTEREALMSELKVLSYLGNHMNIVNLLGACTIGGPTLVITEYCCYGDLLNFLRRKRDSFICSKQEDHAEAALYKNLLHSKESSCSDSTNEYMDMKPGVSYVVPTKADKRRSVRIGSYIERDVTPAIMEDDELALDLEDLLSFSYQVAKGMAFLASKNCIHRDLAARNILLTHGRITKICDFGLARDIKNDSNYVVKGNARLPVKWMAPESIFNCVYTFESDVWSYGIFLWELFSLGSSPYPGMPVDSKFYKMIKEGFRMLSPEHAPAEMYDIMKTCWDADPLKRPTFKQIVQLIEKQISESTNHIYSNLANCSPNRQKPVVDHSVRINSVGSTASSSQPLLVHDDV
T13 sequence (P48729 whole entry): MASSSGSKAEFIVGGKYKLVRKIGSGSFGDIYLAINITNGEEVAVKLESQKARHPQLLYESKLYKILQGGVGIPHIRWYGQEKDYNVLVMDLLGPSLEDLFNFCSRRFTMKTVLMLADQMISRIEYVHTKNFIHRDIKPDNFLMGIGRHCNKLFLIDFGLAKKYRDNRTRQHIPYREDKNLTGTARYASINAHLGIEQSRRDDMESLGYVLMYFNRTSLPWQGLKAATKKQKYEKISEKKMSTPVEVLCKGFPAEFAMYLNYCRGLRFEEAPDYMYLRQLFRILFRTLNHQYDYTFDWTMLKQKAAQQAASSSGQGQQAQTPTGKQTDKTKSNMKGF
T14 sequence (Q13043 whole entry): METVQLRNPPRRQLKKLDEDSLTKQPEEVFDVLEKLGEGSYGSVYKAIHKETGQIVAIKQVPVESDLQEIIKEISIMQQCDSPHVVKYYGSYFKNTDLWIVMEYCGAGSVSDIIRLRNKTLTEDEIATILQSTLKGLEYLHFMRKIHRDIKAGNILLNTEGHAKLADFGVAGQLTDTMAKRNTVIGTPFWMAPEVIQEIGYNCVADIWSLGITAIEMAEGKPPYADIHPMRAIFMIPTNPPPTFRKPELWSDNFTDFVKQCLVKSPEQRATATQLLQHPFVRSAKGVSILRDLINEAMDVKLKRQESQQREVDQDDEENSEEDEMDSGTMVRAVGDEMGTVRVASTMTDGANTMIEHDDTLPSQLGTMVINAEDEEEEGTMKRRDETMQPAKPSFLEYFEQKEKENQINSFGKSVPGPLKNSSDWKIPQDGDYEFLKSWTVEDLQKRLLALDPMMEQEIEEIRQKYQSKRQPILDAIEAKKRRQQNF
T7 sequence (P06241 whole entry): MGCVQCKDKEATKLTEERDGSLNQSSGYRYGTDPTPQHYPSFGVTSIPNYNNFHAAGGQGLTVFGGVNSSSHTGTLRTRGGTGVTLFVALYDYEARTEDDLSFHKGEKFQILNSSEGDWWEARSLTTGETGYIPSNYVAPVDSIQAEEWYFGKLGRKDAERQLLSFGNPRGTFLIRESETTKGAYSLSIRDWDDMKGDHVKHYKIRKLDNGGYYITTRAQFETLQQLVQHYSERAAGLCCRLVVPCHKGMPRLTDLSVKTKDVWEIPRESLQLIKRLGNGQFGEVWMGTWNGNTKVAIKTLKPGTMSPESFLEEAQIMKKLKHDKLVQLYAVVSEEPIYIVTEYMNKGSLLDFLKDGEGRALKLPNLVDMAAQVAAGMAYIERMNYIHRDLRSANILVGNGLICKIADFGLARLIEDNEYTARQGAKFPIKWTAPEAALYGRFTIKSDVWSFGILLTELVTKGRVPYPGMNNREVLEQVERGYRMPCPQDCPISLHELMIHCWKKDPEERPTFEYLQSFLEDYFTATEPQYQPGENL
T4 sequence (P54760 16-987): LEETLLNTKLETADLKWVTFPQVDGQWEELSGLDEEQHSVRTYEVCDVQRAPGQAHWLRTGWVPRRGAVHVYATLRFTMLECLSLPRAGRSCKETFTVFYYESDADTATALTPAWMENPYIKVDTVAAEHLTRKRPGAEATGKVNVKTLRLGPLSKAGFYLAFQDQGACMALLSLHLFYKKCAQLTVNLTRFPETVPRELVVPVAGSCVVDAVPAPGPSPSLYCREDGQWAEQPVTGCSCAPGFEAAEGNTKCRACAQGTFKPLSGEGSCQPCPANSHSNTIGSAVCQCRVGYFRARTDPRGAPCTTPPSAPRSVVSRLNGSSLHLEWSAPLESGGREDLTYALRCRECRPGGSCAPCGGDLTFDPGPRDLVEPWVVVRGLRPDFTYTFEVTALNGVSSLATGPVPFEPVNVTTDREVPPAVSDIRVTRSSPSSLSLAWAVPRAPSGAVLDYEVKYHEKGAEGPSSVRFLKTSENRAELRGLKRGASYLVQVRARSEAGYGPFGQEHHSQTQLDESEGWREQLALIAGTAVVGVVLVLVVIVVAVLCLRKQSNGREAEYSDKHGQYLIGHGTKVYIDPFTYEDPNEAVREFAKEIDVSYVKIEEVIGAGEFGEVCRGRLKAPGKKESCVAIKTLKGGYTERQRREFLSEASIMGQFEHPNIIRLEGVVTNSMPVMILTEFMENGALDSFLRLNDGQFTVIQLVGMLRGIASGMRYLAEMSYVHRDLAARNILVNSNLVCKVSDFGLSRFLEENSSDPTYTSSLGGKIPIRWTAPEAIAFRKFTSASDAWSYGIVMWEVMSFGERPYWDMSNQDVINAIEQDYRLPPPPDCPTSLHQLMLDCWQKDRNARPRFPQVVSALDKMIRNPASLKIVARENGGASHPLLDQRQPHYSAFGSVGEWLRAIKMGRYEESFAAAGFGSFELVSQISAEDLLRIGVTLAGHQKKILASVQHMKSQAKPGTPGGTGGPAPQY

Consider `NC(=O)c1cc(-c2ccncc2)c[nH]1` [Compound A, 4-Pyridin-4-yl-1H-pyrrole-2-carboxylic acid amide], for which the “% Binding” value on FGFR3, at JNK2, on JAK2(Kin.Dom2), on EPHB4, at EPHA3 and on STK3 was <50% each time. For the same compound, the “% Binding” value at FYN, on PAK4, on PKAC-alpha, at AURKA, at FGR and at AMPK-alpha1 was <50% in each case. Also, the “% Binding” value at KIT and at STK4 was <50% in each case. Further, the “inhibition of IL-1β or LPS-induced IL-6 production” value in test [1] is reported as “inhibition”. The IC50 (commonly the concentration needed to halve the response being measured) at CK1α (CK1α, 50 μM ATP, read-out: IC50) was 1.2 µM.
As to `COc1cc(OC)c(C=C2C(O)=Nc3ccccc32)c(OC)c1` [IC261, 3-[(2,4,6-trimethoxyphenyl)methylidenyl]-indolin-2-one], the “% Binding” value at FGFR3, on JNK2, at JAK2(Kin.Dom2), at EPHB4, at EPHA3 and on STK3 was <50% each time. Moreover, the “% Binding” value on FYN, at PAK4, at PKAC-alpha, at AURKA, on FGR and at AMPK-alpha1 was <50% each time. Further, the “% Binding” value at KIT and on STK4 was <50% each time. For the same compound, the “inhibition of IL-1β or LPS-induced IL-6 production” value in test [1] was “inhibition”. On CK1α, this compound showed an IC50 of 6.21 µM.

These data come from US20090099237A1, “Methods of treating inflammatory diseases” (Roche Palo Alto LLC, priority 2007, published 2009).
